Values quoted from earlier work in US11526092B2, “Electrophotographic photoreceptor, process cartridge, and image forming apparatus” (FUJIFILM Business Innovation Corp., priority 2019, dated 2022).

Settings: in water at 25° C.; first acid dissociation constant (pKa1)

Acidic compound pKa: −2
Structure (SMILES): CCCCCCCCCCCCc1ccc(S(=O)(=O)O)cc1 [DBS, dodecylbenzenesulfonic acid]
